Measured values taken from US6011060A, “Chiral phenyldihydrofuranones as PDE-IV inhibitors” (Schering Aktiengesellschaft, priority 1996, dated 2000).

Biological target: radiolabeled Rolipram of rat brain homogenates
Assay: displacement of radiolabeled Rolipram in rat brain homogenates, in vitro (Eur. J. Pharmacol. 127, 105-115 (1986))
Assay type: binding
Details: 3H-rolipram tracer, IC50 converted: Ki = IC50/[1+(L/KD)]
Method: The action on the central nervous system is determined in vitro by measuring the displacement capacity of radiolabeled Rolipram of rat brain homogenates (Eur. J. Pharmacol., Vol. 127, 105-115 (1986)). The IC50 values (that concentration in which 50% inhibiting action occurs) were converted into inhibition constant Ki, which is calculated according to the formula below: […]
in which L means the concentration of the radioactive tracer and KD means the dissociation constant of the ^3 H-rolipram bond, which is determined separately.

Compound | Ki [nM]
COc1ccc(C2(C)CCC(=O)O2)cc1OC1CCC1 (racemic) [cyclobutyl, Racemate, (R,S)-5-(3-cyclobutyloxy-4-methoxyphenyl)-5-methyl-dihydro-2-furanone] | 0.38
COc1ccc(C2(C)CCC(=O)O2)cc1OC1CCCC1 (racemic) [cyclopentyl, Racemate, (R,S)-5-(3-cyclopentyloxy-4-methoxyphenyl)-5-methyl-dihydro-2-furanone] | 0.5
COc1ccc(C2(C)CCC(=O)O2)cc1OCC1CC1 (racemic) [cyclopropylmethyl, Racemate, (R,S)-5-(3-cyclopropylmethoxy-4-methoxyphenyl)-5-methyl-dihydro-2-furanone] | 0.21
COc1ccc(C2(C)CCC(=O)O2)cc1OCC(C)C (racemic) [isobutyl, Racemate, (R,S)-5-(3-isobutyloxy-4-methoxyphenyl)-5-methyl-dihydro-2-furanone] | 0.48
CCCOc1cc(C2(C)CCC(=O)O2)ccc1OC (racemic) [propyl, Racemate, (R,S)-5-(4-methoxy-3-propoxyphenyl)-5-methyl-dihydro-2-furanone] | 0.74
COc1ccc([C@@]2(C)CCC(=O)O2)cc1OC1CCC1 [cyclobutyl, (R)-(+)-enantiomer, (R)-(+)-5-(3-cyclobutyloxy-4-methoxyphenyl)-5-methyl-dihydro-2-furanone] | 1.9
COc1ccc([C@]2(C)CCC(=O)O2)cc1OC1CCC1 [cyclobutyl, (S)-(-)-enantiomer, (S)-(-)-5-(3-cyclobutyloxy-4-methoxyphenyl)-5-methyl-dihydro-2-furanone] | 0.2
COc1ccc([C@@]2(C)CCC(=O)O2)cc1OC1CCCC1 [cyclopentyl, (R)-(+)-enantiomer, (R)-(+)-5-(3-cyclopentyloxy-4-methoxyphenyl)-5-methyl-dihydro-2-furanone] | 2.8
COc1ccc([C@]2(C)CCC(=O)O2)cc1OC1CCCC1 [cyclopentyl, (S)-(-)-enantiomer, (S)-(-)-5-(3-cyclopentyloxy-4-methoxyphenyl)-5-methyl-dihydro-2-furanone] | 0.28
COc1ccc([C@@]2(C)CCC(=O)O2)cc1OCC1CC1 [cyclopropylmethyl, (R)-(+)-enantiomer, (R)-(+)-5-(3-cyclopropylmethoxy-4-methoxyphenyl)-5-methyl-dihydro-2-furanone] | 2.2
COc1ccc([C@]2(C)CCC(=O)O2)cc1OCC1CC1 [cyclopropylmethyl, (S)-(-)-enantiomer, (S)-(-)-5-(3-cyclopropylmethoxy-4-methoxyphenyl)-5-methyl-dihydro-2-furanone] | 0.13
COc1ccc([C@@]2(C)CCC(=O)O2)cc1OCC(C)C [isobutyl, (R)-(+)-enantiomer, (R)-(+)-5-(3-isobutyloxy-4-methoxyphenyl)-5-methyl-dihydro-2-furanone] | 2.3
COc1ccc([C@]2(C)CCC(=O)O2)cc1OCC(C)C [isobutyl, (S)-(-)-enantiomer, (S)-(-)-5-(3-isobutyloxy-4-methoxyphenyl)-5-methyl-dihydro-2-furanone] | 0.25
CCCOc1cc([C@@]2(C)CCC(=O)O2)ccc1OC [propyl, (R)-(+)-enantiomer, (R)-(+)-5-(4-methoxy-3-propoxyphenyl)-5-methyl-dihydro-2-furanone] | 7.3
CCCOc1cc([C@]2(C)CCC(=O)O2)ccc1OC [propyl, (S)-(-)-enantiomer, (S)-(-)-5-(4-methoxy-3-propoxyphenyl)-5-methyl-dihydro-2-furanone] | 0.47
